For this assay, the system named is MTT (mouse pheochromocytoma). In words: IC50 of cell viability (ATP content). The following applies: (24 or 48 h). The gist of the method:
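MTT mouse pheochromocytoma cells, cultured overnight at 37°C, 5% CO2 in DMEM with 5% FBS and 1% horse serum, were exposed in white 1536-well plates to library compounds in DMSO at final 0.5 nM to 46 µM (8 concentrations) for 24 or 48 hrs. CellTiter-Glo luminescence was normalised to positive-control (100%) and DMSO (0%) wells. A four-parameter logistic fit gave the IC50.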

Where a name gives a salt, the structure may show the parent alone.

Turning to `CCn1ccnc1CC1COc2ccccc2O1` (centres undefined) [IMILOXAN], the “IC50 of cell viability” value is > 46 µM.
With `CN(C)CCCN1c2ccccc2CCc2ccccc21` [IMIPRAMINE], the “IC50 of cell viability” value is > 46 µM.
Under `CC(C)=CCOC1=C2OC(=O)\C=C/C2=CC3=C1OC=C3` [IMPERATORIN] stands > 46 µM; under `CC1Cc2ccccc2N1NC(=O)c1ccc(Cl)c([S+](N)(=O)[O-])c1` (centres undefined) [INDAPAMIDE], > 46 µM; under `O=C1/C(=C2\Nc3ccccc3C2=O)Nc2ccccc21` [INDIGO], > 46 µM.
Under `CC(C)(C)NC(=O)[C@@H]1CN(Cc2cccnc2)CCN1C[C@@H](O)C[C@@H](Cc1ccccc1)C(=O)N[C@H]1c2ccccc2C[C@H]1O` [INDINAVIR SULFATE] stands > 46 µM; under `CC1(C)C(/C=C/C=C/C=C/C=C2\N(CCCCS(=O)(=O)[O-])c3ccc4ccccc4c3C2(C)C)=[N+](CCCCS(=O)(=O)[O-])c2ccc3ccccc3c21` [INDOCYANINE GREEN], > 46 µM.
Consider `c1ccc2[nH]ccc2c1` [INDOLUM], for which the “IC50 of cell viability” value is > 46 µM.
Under `CC(C(=O)O)c1ccc(N2Cc3ccccc3C2=O)cc1` (centres undefined) [INDOPROFEN] stands > 46 µM; under `O=C(NC1CCN(CCc2c[nH]c3ccccc23)CC1)c1ccccc1` [INDORAMIN HYDROCHLORIDE], > 46 µM.
For the compound `OC1C(O)C(O)C(O)C(O)C1O` (centres undefined) [INOSITOL], the “IC50 of cell viability” value was > 46 µM.
With `OC[C@@H]1O[C@](CO)(O[C@H]2O[C@H](CO)[C@@H](O)[C@H](O)[C@H]2O)[C@H](O)[C@H]1O` [INULIN (HYDROXYMETHYL, C-14)], the “IC50 of cell viability” value is > 46 µM.
For the compound `Cc1c(I)c(=O)n(-c2ccccc2)n1C` [IODOANTIPYRINE], the “IC50 of cell viability” value was > 46 µM.
For `O=C(O)CNC(=O)c1ccccc1I` [IODOHIPPURATE SODIUM, I-123] the value was > 46 µM.
For the compound `[O-]C(=O)C1=CC=CC=C1C(C2=CC(=C([O-])C(=C2)I)I)=C\3/C=C(I)\C(=O)\C(=C3)I` [IODOPHTHALEINUM NATRICUM], the “IC50 of cell viability” value is > 46 µM.
`CCOC(=O)c1ncn2c1CN(C)C(=O)c1c(I)cccc1-2` [IOMAZENIL]: the “IC50 of cell viability” value was > 46 µM.
`Cl.Nc1c2c(nc3c1CCC3)CCCC2.O` [IPIDACRINE HYDROCHLORIDE HYDRATE]: the “IC50 of cell viability” value was > 46 µM.
As to `CN(C)/C=N/c1c(I)cc(I)c(CCC(=O)O)c1I` [IPODATE CALCIUM], the “IC50 of cell viability” value was > 46 µM.
Turning to `CC(C)CCCC(C)NC(C)C` (centres undefined) [IPROHEPTINE HYDROCHLORIDE], the “IC50 of cell viability” value is > 46 µM.
Under `CC(C)NNC(=O)c1ccncc1.O=[S+]([O-])(O)O` [IPRONIAZID SULFATE] stands > 46 µM.
With `CC(C)c1ncc([N+](=O)[O-])n1C` [IPRONIDAZOLE], the “IC50 of cell viability” value was > 46 µM.
Under `CCCCC/1=N/C2(CCCC2)C(=O)N1CC3=CC=C(C=C3)C4=CC=CC=C4C5=NN=N[NH]5` [IRBESARTAN] stands > 46 µM.
As for `Nc1nc(N)nc(-c2cc(Cl)ccc2Cl)n1` [IRSOGLADINE MALEATE], the “IC50 of cell viability” value is > 46 µM.
For `CC(C)NCC(O)COc1ccccc1-n1cccc1` (centres undefined) [ISAMOLTANE] the value was > 46 µM.
For `CC(C)Cn1cnc2c1c(=O)n(C)c(=O)n2C` [ISBUFYLLINUM] the value was > 46 µM; for `FC(F)OC(Cl)C(F)(F)F` (centres undefined) [ISOFLURANE], > 46 µM.
For the compound `CCC(C)[C@@H](N)C(=O)O` (some centres undefined) [ISOLEUCINE], the “IC50 of cell viability” value is > 46 µM.
As for `CCC(C)C(N)C(=O)O` (centres undefined) [ISOLEUCINE], the “IC50 of cell viability” value was > 46 µM.
For `CC[C@@H](C)C(N)C(=O)O` (some centres undefined) [ISOLEUCINE] the value was > 46 µM.
Turning to `O=C(NNC[S+](=O)([O-])O)c1ccncc1` [ISONIAZID SODIUM METHANESULFONATE], the “IC50 of cell viability” value was > 46 µM.
With `Cc1c(C(C)C)c(=O)n(-c2ccccc2)n1C` [ISOPROPYLANTIPYRINE], the “IC50 of cell viability” value is > 46 µM.
As to `CC(C)NCC(O)c1ccc(O)c(O)c1` (centres undefined) [ISOPROTERENOL], the “IC50 of cell viability” value was > 46 µM.
Turning to `O=[N+]([O-])O[C@H]1CO[C@H]2[C@@H]1OC[C@H]2O` [ISOSORBIDE MONONITRATE], the “IC50 of cell viability” value is > 46 µM.
As to `O[C@@H]1CO[C@H]2[C@@H]1OC[C@@H]2O` [ISOSORBIDE], the “IC50 of cell viability” value was > 46 µM.
For `C[C@H](CN1c2ccccc2Sc2cccnc21)N(C)C` [ISOTHIPENDYL HYDROCHLORIDE], the “IC50 of cell viability” value is > 46 µM.
Consider `CN1\C(=C(\O)C2=C(C=CC=C2)[S+]1([O-])=O)C(=O)NC3=NOC(=C3)C` [ISOXICAM], for which the “IC50 of cell viability” value was > 46 µM.
On to `Cc1nnc2n1-c1sc(CCc3ccc(CC(C)C)cc3)cc1C(c1ccccc1Cl)=NC2C` (centres undefined) [ISRAPAFANT], for which the “IC50 of cell viability” value was > 46 µM.
As for `CN1C2CCC1CC(NC(=O)n1c(=O)[nH]c3ccccc31)C2` (centres undefined) [ITASETRON HYDROCHLORIDE HYDRATE], the “IC50 of cell viability” value was > 46 µM.
Take `COc1ccc(C(=O)NCc2ccc(OCCN(C)C)cc2)cc1OC` [ITOPRIDE HYDROCHLORIDE]: the “IC50 of cell viability” value was > 46 µM.
On to `COc1cc2c(cc1OC)CC(=O)N(CCCN(C)C[C@H]1Cc3cc(OC)c(OC)cc31)CC2` [IVABRADINE HYDROCHLORIDE], for which the “IC50 of cell viability” value was > 46 µM.
As to `CC[C@H](C)[C@H]1O[C@]2(CC[C@@H]1C)C[C@@H]1C[C@@H](C/C=C(\C)[C@H](O[C@@H]3C[C@H](OC)[C@H](O[C@@H]4C[C@H](OC)[C@@H](O)[C@H](C)O4)[C@H](C)O3)[C@@H](C)/C=C/C=C3\CO[C@@H]4[C@H](O)C(C)=C[C@@H](C(=O)O1)[C@]34O)O2` [IVERMECTIN], the “IC50 of cell viability” value was > 46 µM.
As to `CCC1CC2CC3c4[nH]c5ccc(OC)cc5c4CCN(C2)C13` (centres undefined) [Ibogaine], the “IC50 of cell viability” value is > 46 µM.
Under `CC(C)C(=O)c1c(C(C)C)nn2ccccc12` [Ibudilast] stands > 46 µM; under `CC(C)Cc1ccc(CC(=O)O)cc1` [Ibufenac], > 46 µM.
`CC(C)Cc1ccc(C(C)C(=O)O)cc1` (centres undefined) [Ibuprofen]: the “IC50 of cell viability” value was > 46 µM.
For `CCCCCCCN(CC)CCCC(O)c1ccc(N[S+](C)(=O)[O-])cc1` (centres undefined) [Ibutilide] the value was > 46 µM.
For `COC1=C(OC)C(=O)C(CCCCCCCCCCO)=C(C)C1=O` [Idebenone] the value was > 46 µM.
For the compound `OC[C@@H]1O[C@H](C[C@@H]1O)N2\C=C(\I)C(=O)NC2=O` [Idoxuridine], the “IC50 of cell viability” value is > 46 µM.
For `O=C(/C=C/c1ccccc1)NCCO` [Idrocilamida], the “IC50 of cell viability” value was > 46 µM.

Values taken from the supplement of paper PMC3974653.
